Measurements reported in patent US20240425480A1, “NOVEL PYRIDINE DERIVATIVE COMPOUND AS RON INHIBITOR” (LG CHEM, LTD., priority 2021, published 2024).

How the values were obtained:
RON = RON (Homo sapiens, UniProt Q04912); assay: Inhibitory activity against RON, TR-FRET kinase assay; format: biochemical; details: TR-FRET enzyme assay
Method: In order to measure the inhibitory activity of each of the compounds of Examples against RON, the IC50 of each of the compounds was measured using Time-resolved fluorescence energy transfer (TR-FRET).
(§1) Specifically, the compound was prepared to a concentration of 1 mM in 100% DMSO and was diluted 10 times in a stepwise manner through 3-fold dilution. The compound (2 ul) diluted in a stepwise manner was added to a 96-well-plate containing 48 ul of a 1× kinase reaction buffer (50 mM HEPES (pH 7.4), 0.01% Tween-20, 5 mM DTT, 0.5 mM Na3VO4, 2 mM EGTA, 10 mM MgCl2).
The RON protein was diluted to a concentration of 49.3 nM in a RON storage buffer (50 mM Tris-HCl (pH 7.5), 150 mM NaCl, 0.5 mM EDTA, 0.02% Triton X-100), and then diluted again to a concentration of 0.4 nM in a 1×kinase reaction buffer. As a substrate cocktail, a RON-specific substrate mixed solution (40 uM ULight-labeled Poly GT, 100 nM ATP) was prepared at a concentration 2 times the final reaction concentration.
(§2) Thereafter, a 384-well-plate was prepared, and 2.5 μl of each of the diluted compounds of Examples was added to a corresponding well of experimental group wells, and 2.5 μl of a 4% DMSO solution was dispensed into high control wells and low control wells.
(§3) Thereafter, 2.5 μL of 0.4 nM RON was dispensed into each of the high control wells and the experimental group wells, and 2.5 μL of the 1× kinase reaction buffer was added to the low control wells, and all the wells were centrifuged at room temperature for 40 seconds at 1,000 RPM, and then incubated at room temperature for 20-30 minutes. Then, 5 μL of the substrate cocktail (2×) was dispensed into each well, and all the wells were centrifuged at room temperature for 40 seconds at 1,000 RPM, and then incubated at room temperature for 60 minutes. Thereafter, 5 μL of 30 mM EDTA was added to each well to terminate the reaction, and all the wells were then incubated again at room temperature for 5 minutes. Thereafter, 5 μL of a 4×phosphotyrosine antibody (Perkin Elmer) containing europium was added to each well, and all the wells were then incubated at room temperature for 60 minutes. After the incubation, the 384-well-plate was read with the Vison plate reader. In this case, the excitation wavelength was 340 nm, and the emission wavelength was 620 nm and 665 nm. The IC50 value of each compound of Examples was derived using the GraphPd Prism7 program.

cMET = cMET (Homo sapiens, UniProt P08581); assay: Inhibitory activity against MET (cMET), TR-FRET kinase assay; format: biochemical; details: TR-FRET enzyme assay
Chain of cMET (P08581 25-1390): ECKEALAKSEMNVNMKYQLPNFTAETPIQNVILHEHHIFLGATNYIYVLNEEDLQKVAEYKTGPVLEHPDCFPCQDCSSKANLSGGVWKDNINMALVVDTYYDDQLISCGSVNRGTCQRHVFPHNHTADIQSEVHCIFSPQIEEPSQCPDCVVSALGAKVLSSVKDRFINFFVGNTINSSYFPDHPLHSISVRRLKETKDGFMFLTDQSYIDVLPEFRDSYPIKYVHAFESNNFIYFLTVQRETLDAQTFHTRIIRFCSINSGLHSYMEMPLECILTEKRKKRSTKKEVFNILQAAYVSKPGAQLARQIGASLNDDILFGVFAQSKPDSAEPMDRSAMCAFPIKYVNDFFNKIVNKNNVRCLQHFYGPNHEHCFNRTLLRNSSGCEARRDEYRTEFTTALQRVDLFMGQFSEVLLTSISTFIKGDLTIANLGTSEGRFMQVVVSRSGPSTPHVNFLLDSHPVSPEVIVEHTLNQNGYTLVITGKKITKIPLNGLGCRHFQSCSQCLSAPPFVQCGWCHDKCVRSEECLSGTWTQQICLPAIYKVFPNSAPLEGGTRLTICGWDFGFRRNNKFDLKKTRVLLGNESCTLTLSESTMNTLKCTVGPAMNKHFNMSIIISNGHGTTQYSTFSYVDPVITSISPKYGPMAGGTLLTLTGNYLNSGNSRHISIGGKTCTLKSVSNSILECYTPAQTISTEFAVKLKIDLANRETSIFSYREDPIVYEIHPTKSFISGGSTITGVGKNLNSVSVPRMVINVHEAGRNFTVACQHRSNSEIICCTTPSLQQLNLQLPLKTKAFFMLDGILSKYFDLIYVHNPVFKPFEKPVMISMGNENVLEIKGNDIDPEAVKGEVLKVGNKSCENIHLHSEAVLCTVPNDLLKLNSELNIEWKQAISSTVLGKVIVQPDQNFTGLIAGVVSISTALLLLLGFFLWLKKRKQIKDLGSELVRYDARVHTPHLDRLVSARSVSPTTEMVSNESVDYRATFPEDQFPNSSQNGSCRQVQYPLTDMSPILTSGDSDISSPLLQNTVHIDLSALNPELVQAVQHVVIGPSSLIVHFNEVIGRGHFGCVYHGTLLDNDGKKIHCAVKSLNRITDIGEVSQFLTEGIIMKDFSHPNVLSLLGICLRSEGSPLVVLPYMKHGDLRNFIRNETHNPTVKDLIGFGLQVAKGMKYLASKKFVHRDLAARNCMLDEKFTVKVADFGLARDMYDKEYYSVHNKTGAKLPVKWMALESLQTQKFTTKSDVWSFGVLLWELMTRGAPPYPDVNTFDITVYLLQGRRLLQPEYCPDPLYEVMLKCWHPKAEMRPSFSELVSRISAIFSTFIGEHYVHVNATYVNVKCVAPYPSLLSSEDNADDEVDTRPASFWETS
Method: In addition, in order to measure the enzyme activity inhibition for cMET, the evaluation was performed in the same manner as the enzyme activity inhibition measurement experiment for RON.
as §1, with “a 1×kinase” for “a 1× kinase”, “7.4), 0.05% BSA, 0.005%” for “7.4), 0.01%”, “Tween-20, 1” for “Tween-20, 5”, “mM MnCl2, 20” for “mM Na3VO4, 2 mM EGTA, 10”
The cMET protein was diluted to a concentration of 263 nM in a cMET storage buffer (50 mM Tris-HCl (pH 7.5), 150 mM NaCl, 0.05% Brij35, 1 mM DTT, 10% Glycerol), and then diluted again to a concentration of 2 nM in a 1×kinase reaction buffer. As a substrate cocktail, a MET-specific substrate mixed solution (5 uM TK peptide, 10 mM ATP) was prepared at a concentration 2 times the final reaction concentration.
as §2
as §3, with “of 2” for “of 0.4”, “nM cMET” for “nM RON”, “of 90” for “of 30”, “The […]” for “The IC50”

Chain of RON (Q04912 25-1400, species assumed): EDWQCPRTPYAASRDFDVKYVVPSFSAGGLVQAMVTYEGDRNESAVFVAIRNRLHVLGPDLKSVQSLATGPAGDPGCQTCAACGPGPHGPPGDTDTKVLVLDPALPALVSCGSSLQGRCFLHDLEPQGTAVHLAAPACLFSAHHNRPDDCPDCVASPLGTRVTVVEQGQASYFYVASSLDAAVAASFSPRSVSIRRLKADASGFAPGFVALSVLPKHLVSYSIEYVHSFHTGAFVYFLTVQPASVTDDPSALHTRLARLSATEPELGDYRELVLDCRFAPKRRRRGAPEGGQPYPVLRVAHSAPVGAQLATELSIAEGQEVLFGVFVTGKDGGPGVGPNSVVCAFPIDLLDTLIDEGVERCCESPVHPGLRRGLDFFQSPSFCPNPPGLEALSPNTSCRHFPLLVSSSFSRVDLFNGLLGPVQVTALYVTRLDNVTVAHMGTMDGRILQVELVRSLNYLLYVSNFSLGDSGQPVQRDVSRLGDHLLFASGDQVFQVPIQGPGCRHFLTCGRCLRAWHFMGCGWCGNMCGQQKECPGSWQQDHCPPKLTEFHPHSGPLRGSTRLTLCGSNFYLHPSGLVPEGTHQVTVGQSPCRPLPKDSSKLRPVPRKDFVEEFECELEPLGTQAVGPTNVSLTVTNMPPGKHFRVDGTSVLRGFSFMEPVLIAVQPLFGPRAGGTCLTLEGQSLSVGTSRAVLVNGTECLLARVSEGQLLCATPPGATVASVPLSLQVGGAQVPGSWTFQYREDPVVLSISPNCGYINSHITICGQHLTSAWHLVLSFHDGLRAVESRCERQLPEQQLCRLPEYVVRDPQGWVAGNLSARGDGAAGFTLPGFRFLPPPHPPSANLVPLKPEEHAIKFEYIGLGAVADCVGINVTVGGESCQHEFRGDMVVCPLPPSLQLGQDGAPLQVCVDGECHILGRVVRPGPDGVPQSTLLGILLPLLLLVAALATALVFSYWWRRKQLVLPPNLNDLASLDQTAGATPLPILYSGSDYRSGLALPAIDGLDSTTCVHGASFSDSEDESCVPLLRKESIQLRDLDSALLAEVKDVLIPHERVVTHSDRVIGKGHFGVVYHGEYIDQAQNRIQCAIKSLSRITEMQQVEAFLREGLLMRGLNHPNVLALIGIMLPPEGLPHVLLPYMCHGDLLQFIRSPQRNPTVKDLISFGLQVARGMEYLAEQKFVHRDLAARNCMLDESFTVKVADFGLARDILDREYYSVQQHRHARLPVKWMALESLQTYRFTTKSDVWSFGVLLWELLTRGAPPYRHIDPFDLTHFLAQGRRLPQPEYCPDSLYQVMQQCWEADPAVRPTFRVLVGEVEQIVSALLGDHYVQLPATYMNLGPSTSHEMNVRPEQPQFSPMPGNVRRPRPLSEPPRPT

SMILES	IC50 (RON) [µM]	IC50 (cMET) [µM]
Nc1nccc(Oc2ccc(NC(=O)c3cnn(-c4ncccn4)c3C(F)(F)F)cc2F)c1Cl [Example 21, N-(4-((2-amino-3-chloropyridin-4-yl)oxy)-3-fluorophenyl)-1-(pyrimidin-2-yl)-5-(trifluoromethyl)-1H-pyrazole-4-carboxamide]	< 0.05	> 5
Nc1nccc(Oc2ccc(NC(=O)c3cnn(-c4ccncn4)c3C(F)(F)F)cc2F)c1Cl [Example 22, N-(4-((2-amino-3-chloropyridin-4-yl)oxy)-3-fluorophenyl)-1-(pyrimidin-4-yl)-5-(trifluoromethyl)-1H-pyrazole-4-carboxamide]	0.05 to 0.5	> 5
Cc1ccnc(-n2ncc(C(=O)Nc3ccc(Oc4ccnc(N)c4Cl)c(F)c3)c2C(F)(F)F)n1 [Example 23, N-(4-((2-amino-3-chloropyridin-4-yl)oxy)-3-fluorophenyl)-1-(4-methylpyrimidin-2-yl)-5-(trifluoromethyl)-1 H-pyrazole-4-carboxamide]	0.05 to 0.5	> 5
CCOc1cccnc1-n1ncc(C(=O)Nc2ccc(Oc3ccnc(N)c3Cl)c(F)c2)c1C(F)(F)F [Example 24, N-(4-((2-amino-3-chloropyridin-4-yl)oxy)-3-fluorophenyl)-1-(3-ethoxypyridin-2-yl)-5-(trifluoromethyl)-1H-pyrazole-4-carboxamide]	0.05 to 0.5	0.5 to 5
Nc1nccc(Oc2ccc(NC(=O)c3cnn(-c4cc(F)ccn4)c3C(F)(F)F)cc2F)c1Cl [Example 25, N-(4-((2-amino-3-chloropyridin-4-yl)oxy)-3-fluorophenyl)-1-(4-fluoropyridin-2-yl)-5-(trifluoromethyl)-1H-pyrazole-4-carboxamide]	< 0.05	> 5
Nc1nccc(Oc2ccc(NC(=O)c3cnn(-c4ncc(F)cn4)c3C(F)(F)F)cc2F)c1Cl [Example 26, N-(4-((2-amino-3-chloropyridin-4-yl)oxy)-3-fluorophenyl)-1-(5-fluoropyrimidin-2-yl)-5-(trifluoromethyl)-1H-pyrazole-4-carboxamide]	0.05 to 0.5	> 5
Nc1nccc(Oc2ccc(NC(=O)c3cnn(-c4ncc(O)cn4)c3C(F)(F)F)cc2F)c1Cl [Example 27, N-(4-((2-amino-3-chloropyridin-4-yl)oxy)-3-fluorophenyl)-1-(5-hydroxypyrimidin-2-yl)-5-(trifluoromethyl)-1H-pyrazole-4-carboxamide]	0.05 to 0.5	> 5
Nc1nccc(Oc2ccc(NC(=O)c3cnn(-c4ncccc4F)c3C(F)(F)F)cc2F)c1I [Example 28, N-(4-((2-amino-3-iodopyridin-4-yl)oxy)-3-fluorophenyl)-1-(3-fluoropyridin-2-yl)-5-(trifluoromethyl)-1H-pyrazole-4-carboxamide]	< 0.05	0.5 to 5
Nc1nccc(Oc2ccc(NC(=O)c3cnn(-c4ncc(F)cc4F)c3C(F)(F)F)cc2F)c1Cl [Example 29, N-(4-((2-amino-3-chloropyridin-4-yl)oxy)-3-fluorophenyl)-1-(3,5-difluoropyridin-2-yl)-5-(trifluoromethyl)-1H-pyrazole-4-carboxamide]	< 0.05	> 5
Nc1nccc(Oc2ccc(NC(=O)c3cnn(-c4ccc(F)nn4)c3C(F)(F)F)cc2F)c1Cl [Example 30, N-(4-((2-amino-3-chloropyridin-4-yl)oxy)-3-fluorophenyl)-1-(6-fluoropyridazin-3-yl)-5-(trifluoromethyl)-1H-pyrazole-4-carboxamide]	0.5 to 5	> 5
Nc1cc(Oc2ccc(NC(=O)c3cnn(-c4ncccc4F)c3C(F)(F)F)cc2F)ccn1 [Example 31, N-(4-((2-aminopyridin-4-yl)oxy)-3-fluorophenyl)-1-(3-fluoropyridin-2-yl)-5-(trifluoromethyl)-1H-pyrazole-4-carboxamide]	< 0.05	> 5
Nc1nccc(Oc2ccc(NC(=O)c3cnn(-c4ncccc4F)c3C(F)(F)F)c(F)c2)c1Cl [Example 32, N-(4-((2-amino-3-chloropyridin-4-yl)oxy)-2-fluorophenyl)-1-(3-fluoropyridin-2-yl)-5-(trifluoromethyl)-1H-pyrazole-4-carboxamide]	< 0.05	0.5 to 5
Nc1nccc(Oc2ccc(NC(=O)c3cnn(-c4ncccc4F)c3C(F)(F)F)cc2F)c1NC1CCCCC1 [Example 33, N-(4-((2-amino-3-(cyclohexylamino)pyridin-4-yl)oxy)-3-fluorophenyl)-1-(3-fluoropyridin-2-yl)-5-(trifluoromethyl)-1H-pyrazole-4-carboxamide]	0.05 to 0.5	> 5
CC(C)Nc1c(Oc2ccc(NC(=O)c3cnn(-c4ncccc4F)c3C(F)(F)F)cc2F)ccnc1N [Example 34, N-(4-((2-amino-3-(isopropylamino)pyridin-4-yl)oxy)-3-fluorophenyl)-1-(3-fluoropyridin-2-yl)-5-(trifluoromethyl)-1H-pyrazole-4-carboxamide]	< 0.05	> 5
CCc1c(C(=O)Nc2ccc(Oc3ccnc(N)c3Cl)c(F)c2)cnn1-c1ncccc1F [Example 35, N-(4-((2-amino-3-chloropyridin-4-yl)oxy)-3-fluorophenyl)-5-ethyl-1-(3-fluoropyridin-2-yl)-1H-pyrazole-4-carboxamide]	< 0.05	> 5
CCc1c(C(=O)Nc2ccc(Oc3ccnc(N)c3Cl)c(F)c2)cnn1-c1ncccc1Cl [Example 36, N-(4-((2-amino-3-chloropyridin-4-yl)oxy)-3-fluorophenyl)-1-(3-chloropyridin-2-yl)-5-ethyl-1H-pyrazole-4-carboxamide]	0.05 to 0.5	0.5 to 5
CCc1c(C(=O)Nc2ccc(Oc3ccnc(N)c3I)c(F)c2)cnn1-c1ncccc1F [Example 37, N-(4-((2-amino-3-iodopyridin-4-yl)oxy)-3-fluorophenyl)-5-ethyl-1-(3-fluoropyridin-2-yl)-1H-pyrazole-4-carboxamide]	< 0.05	0.5 to 5
CCc1c(C(=O)Nc2ccc(Oc3ccnc(N)c3I)c(F)c2)cnn1-c1ncccc1Cl [Example 38, N-(4-((2-amino-3-iodopyridin-4-yl)oxy)-3-fluorophenyl)-1-(3-chloropyridin-2-yl)-5-ethyl-1H-pyrazole-4-carboxamide]	< 0.05	0.5 to 5
Cn1cc(-n2ncc(C(=O)Nc3ccc(Oc4ccnc(N)c4Cl)c(F)c3)c2C(F)(F)F)cn1 [Example 39, N-(4-((2-amino-3-chloropyridin-4-yl)oxy)-3-fluorophenyl)-1′-methyl-5-(trifluoromethyl)-1′H-[1,4′-bipyrazole]-4-carboxamide]	0.05 to 0.5	> 5
Cc1csc(-n2ncc(C(=O)Nc3ccc(Oc4ccnc(N)c4Cl)c(F)c3)c2C(F)(F)F)n1 [Example 40, N-(4-((2-amino-3-chloropyridin-4-yl)oxy)-3-fluorophenyl)-1-(4-methylthiazol-2-yl)-5-(trifluoromethyl)-1H-pyrazole-4-carboxamide]	0.05 to 0.5	> 5
